Counter-ions that a name gives are not always drawn.
Key:
[1] = test system: patients with urinary disturbance associated with benign prostatic hyperplasia; assay: Placebo-control parallel groups-comparing double blind clinical trial, I-PSS changes from pre-administration; assay type: in vivo, human; details: for I-PSS (irritative symptom) Changes / I-PSS (obstructive symptom) Changes / Total I-PSS Changes: oral, 12 weeks
Excerpt: Using patients with urinary disturbance associated with benign prostatic hyperplasia as the subjects, the clinical effects of silodosin and tamsulosin hydrochloride were examined by a placebo-control parallel groups-comparing double blind trial, using changes in the total I-PSS (International Prostate Symptom Score) from pre-administration as the primary endpoint. The I-PSS consists of 3 items of irritative symptoms representing the symptoms at the time of storing (Nocturia, Urgency and Urination within 2 hours) and 4 items of obstructive symptoms representing the symptoms at the time of voiding (Sensation of residual urine, Intermittency of urinary stream, Power of urinary stream and Straining during urination), prepared for use in the judgment of various therapeutic effects on the dysuria associated with benign prostatic hyperplasia, but this is not specific to prostatic hyperplasia and can also be used for the judgment of therapeutic effects on female dysuria and the like (Non-patent Reference 1).
Effects of silodosin (4 mg per once, twice a day) and tamsulosin hydrochloride (0.2 mg per once, once a day) on the storage disorder were examined by the following method.
Patients to be tested: 455 patients with dysuria associated with benign prostatic hyperplasia
Administration method: oral administration for 12 weeks
Primary endpoints: total score of I-PSS, I-PSS irritative symptom score and I-PSS obstructive symptom score
Analysis method: all of the finally evaluated cases were stratified into groups of patients having a total score of less than 6 and that of 6 or more regarding the “Urination within 2 hours” and “Urgency” of I-PSS, and average values of respective changes in the total score of I-PSS, I-PSS irritative symptom score and I-PSS obstructive symptom score before and after the administration were calculated for each group.
Administration groups: silodosin group (116 cases having a pre-administration score of less than 6, and 58 cases having that of 6 or more), tamsulosin group (135 cases having a pre-administration score of less than 6, and 57 cases having that of 6 or more), a placebo group (61 cases having a pre-administration score of less than 6, and 28 cases having that of 6 or more)
Not at all: 0 point; Less than 1 time in 5: 1 point; Less than 1 time in 2: 2 points; About 1 time in 2: 3 points; More than 1 time in 2: 4 points; Almost always: 5 points.
None: 0 point; 1 time: 1 point; 2 times: 2 points; 3 times: 3 points; 4 times: 4 points; 5 times or more: 5 points.

α1B-AR subtype = molecular target: T1, α1B-AR subtype (Homo sapiens, UniProt P35368); details: Patent Reference 3 and Non-patent Reference 5; cited from earlier work
T1 sequence (P35368 1-520): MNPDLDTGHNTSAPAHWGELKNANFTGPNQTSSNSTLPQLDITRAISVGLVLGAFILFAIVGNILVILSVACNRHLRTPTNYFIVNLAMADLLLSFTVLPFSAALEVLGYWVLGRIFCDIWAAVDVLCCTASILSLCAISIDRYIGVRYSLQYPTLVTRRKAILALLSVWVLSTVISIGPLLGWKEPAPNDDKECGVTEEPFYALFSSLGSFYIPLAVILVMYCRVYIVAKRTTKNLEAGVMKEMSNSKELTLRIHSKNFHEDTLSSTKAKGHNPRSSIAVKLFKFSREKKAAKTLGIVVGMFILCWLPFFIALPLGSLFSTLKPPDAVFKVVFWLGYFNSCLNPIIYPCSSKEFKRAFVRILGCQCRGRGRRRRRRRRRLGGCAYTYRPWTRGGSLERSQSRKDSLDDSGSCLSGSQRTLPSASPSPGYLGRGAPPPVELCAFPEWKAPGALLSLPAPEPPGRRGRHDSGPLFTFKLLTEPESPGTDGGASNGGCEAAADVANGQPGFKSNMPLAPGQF

α1A-AR subtype = molecular target: T2, α1A-AR subtype (Homo sapiens, UniProt P35348); details: Patent Reference 3 and Non-patent Reference 5; cited from earlier work
T2 sequence (P35348 1-466): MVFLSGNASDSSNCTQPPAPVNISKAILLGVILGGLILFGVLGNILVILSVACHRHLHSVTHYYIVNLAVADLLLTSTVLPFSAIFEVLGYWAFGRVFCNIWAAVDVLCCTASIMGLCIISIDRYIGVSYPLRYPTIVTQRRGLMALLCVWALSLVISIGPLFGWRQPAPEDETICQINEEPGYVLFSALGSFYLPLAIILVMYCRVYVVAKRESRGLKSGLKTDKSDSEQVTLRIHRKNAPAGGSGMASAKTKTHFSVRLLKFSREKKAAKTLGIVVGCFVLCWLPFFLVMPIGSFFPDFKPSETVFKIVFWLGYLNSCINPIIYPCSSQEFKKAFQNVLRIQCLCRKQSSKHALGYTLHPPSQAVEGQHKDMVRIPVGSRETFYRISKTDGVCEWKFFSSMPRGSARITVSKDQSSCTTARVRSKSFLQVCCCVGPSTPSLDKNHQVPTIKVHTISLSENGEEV

α1D-AR subtype = molecular target: T3, α1D-AR subtype (Homo sapiens, UniProt P25100); details: Patent Reference 3 and Non-patent Reference 5; cited from earlier work
T3 sequence (P25100 1-572): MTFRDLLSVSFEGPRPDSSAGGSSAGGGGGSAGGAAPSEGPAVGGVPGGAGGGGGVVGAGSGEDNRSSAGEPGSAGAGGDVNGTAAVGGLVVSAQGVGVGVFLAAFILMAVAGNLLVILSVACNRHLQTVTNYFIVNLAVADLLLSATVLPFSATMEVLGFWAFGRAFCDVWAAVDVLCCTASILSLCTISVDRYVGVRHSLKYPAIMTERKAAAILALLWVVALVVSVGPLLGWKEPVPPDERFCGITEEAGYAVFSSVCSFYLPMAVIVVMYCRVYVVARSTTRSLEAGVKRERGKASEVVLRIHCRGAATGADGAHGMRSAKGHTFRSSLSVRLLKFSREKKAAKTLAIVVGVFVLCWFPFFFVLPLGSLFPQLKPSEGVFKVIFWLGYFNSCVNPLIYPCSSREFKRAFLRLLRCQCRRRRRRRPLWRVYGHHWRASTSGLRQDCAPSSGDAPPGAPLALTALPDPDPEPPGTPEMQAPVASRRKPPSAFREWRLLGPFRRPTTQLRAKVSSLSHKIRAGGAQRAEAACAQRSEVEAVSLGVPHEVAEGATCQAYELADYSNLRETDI

[2] = Overall (all patients), average change
[3] = patients with pre-administration total score of "Urination within 2 hours" and "Urgency" less than 6, average change before/after administration
[4] = pre-administration score 6 or more, average change
[5] = pre-administration score less than 6, average change

With CCOc1ccccc1OCCN[C@H](C)Cc1ccc(OC)c(S(N)(=O)=O)c1 [Tamsulosin, tamsulosin hydrochloride, reference compound] the “I-PSS (irritative symptom) Changes” value [1, 2] was −2.1, the “I-PSS (obstructive symptom) Changes” value [1, 2] was −4.8 and the “Total I-PSS Changes” value [1, 2] was −6.8. For the same compound, the “Total I-PSS Changes” value [1, 3] was −5.9, the “I-PSS (irritative symptom) Changes” value [1, 4] was −3.9 and the “I-PSS (obstructive symptom) Changes” value [1, 4] was −5.2. The “Total I-PSS Changes” value [1, 4] was −9.1, the “I-PSS (irritative symptom) Changes” value [1, 5] was −1.3 and the “I-PSS (obstructive symptom) Changes” value [1, 5] was −4.6.

In the case of C[C@H](Cc1cc2c(c(C(N)=O)c1)N(CCCO)CC2)NCCOc1ccccc1OCC(F)(F)F [Silodosin, (−)-1-(3-hydroxypropyl)-5-((2R)-2-{[2-({2-[(2,2,2-trifluoroethyl)-oxy]phenyl}oxy)ethyl]amino}propyl)2,3-dihydro-1H-indole-7-carboxamide], the “Action upon α1B-AR subtype (in words)” value (α1B-AR subtype) is given as “hardly acts”, the “Action upon α1A-AR subtype (in words)” value (α1A-AR subtype) is given as “selectively acts” and the “Inverse agonist activity (in words)” value (α1A-AR subtype) is given as “does not show inverse agonist activity”. For the same compound, the “Action upon α1D-AR subtype (in words)” value (α1D-AR subtype) was “hardly acts”, the “I-PSS (irritative symptom) Changes” value [1, 2] was −2.5 and the “I-PSS (obstructive symptom) Changes” value [1, 2] was −5.8. The “Total I-PSS Changes” value [1, 2] was −8.3, the “Effect on I-PSS irritative symptom score in patients showing storage disorders (in words)” value ([1]; particularly patients with 6 or more total score of "Urination within 2 hours" and "Urgency" at pre-administration) was “has the effect to improve I-PSS irritative symptom score” and the “Total I-PSS Changes” value [1, 3] was −6.8. The “I-PSS (irritative symptom) Changes” value [1, 4] was −4.3, the “I-PSS (obstructive symptom) Changes” value [1, 4] was −7.1 and the “Total I-PSS Changes” value [1, 4] was −11.3. The “I-PSS (irritative symptom) Changes” value [1, 5] was −1.6 and the “I-PSS (obstructive symptom) Changes” value [1, 5] was −5.2.

Source: patent US20100137399A1, “PREVENTIVE AND/OR THERAPEUTIC AGENT FOR URINE COLLECTION DISORDER ACCOMPANYING LOWER URINARY TRACT OBSTRUCTION” (KISSEI PHARMACEUTICAL CO., LTD., priority 2004, published 2010)
